Assay results published in US8580769B2, “Treatment of obesity, metabolic syndrome, and diabetes with protein kinase C inhibitors” (The United States of America as represented by the …, priority 2011, dated 2013).

Columns and labels:
human hepatocytes = test: mRNA expression of lipogenic, inflammatory and glucogenic markers in human hepatocytes (RT-PCR); assay type: cell-based; conditions: for expression of G6 Pase / expression of PEPCK: hepatocytes of non-diabetic and T2DM humans, inhibitor alone or with insulin; for expression of ACC / expression of FAS / expression of IL-1β / expression of SREBP-1c / expression of TNF-α: hepatocytes of non-diabetic and/or T2DM humans
Method: After thawing, the hepatocytes were distributed (approximately 10^6 cells per 100 mm plate) and incubated approximately 16 hours overnight in Dulbecco's minimal essential medium containing 5% fetal calf serum, 100 units/ml sodium-penicillin, 100 μg/ml streptomycin-sulfate, 1 μM insulin and 2 μM dexamethasone. After washing, cells were incubated first for 2 hours in William's E medium (Sigma-Aldrich, St. Louis, Mo., catalog no. W1878) containing GLUTAMAX™ (Gibco/Invitrogen, Carlsbad, Calif.), 100 units/ml sodium-penicillin, 100 μg/ml streptomycin-sulfate, 10 μM insulin, 100 nM dexamethasone, and then for 2 hours in William's E medium containing 100 units/ml sodium penicillin, 100 μg/ml streptomycin-sulfate, 100 nM dexamethasone, 0.25 mg/ml transferrin, 0.25 μg/ml sodium selenite and 10 μM insulin. Cells were then washed and incubated for 3 hours in the same medium, but lacking insulin. Where indicated, an aPKC inhibitor was then added and incubation was continued for 30 min, after which, cells were treated either for 15 min with or without 100 nM insulin for acute signaling studies, […] After incubation, cells were sonicated in homogenizing buffer.
(§1) mRNA Measurements: As previously described (Sajan et al., J. Lipid Res. 50:1133-1145, 2009; Sajan et al., Diabetologia 52:1197-1207, 2009; Farese et al., J. Clin. Invest. 117:2289-2301, 2007), tissues were added to TRIZOL® reagent (Invitrogen) and RNA was extracted and purified with the RNEASY® Mini-Kit (Qiagen; Valencia, Calif.) and RNAase-free DNAase set (Qiagen) as per kit instructions, quantified by measuring A260/A280, further checked for purity by electrophoresis on 1.2% agarose gels, and mRNA quantified by quantitative real-time reverse transcriptase-polymerase chain reaction (RT-PCR). Reverse transcription was accomplished with TAQMAN® reverse transcription reagent from Applied Biosystems (Foster City, Calif., USA). mRNAs were measured with a SYBR® Green kit (Applied Biosystems) using the nucleotide primers shown in Table 1.

liver of Het-MλKO mice = test: hepatic mRNA and nuclear NFκB levels in Het-MλKO mice; assay type: in vivo, mouse; conditions: for hepatic ACC mRNA / hepatic FAS mRNA: 7-day treatment s.c. (ATM 60 mg/kg; ICAPP 0.4 mg/kg); for hepatic G6 Pase expression / hepatic PEPCK expression / hepatic SREBP-1c mRNA: s.c. once daily (ATM 60 mg/kg; ICAPP 0.4 mg/kg; ICAP 0.5 mg/kg)
Text: In Vivo Mouse Studies: Male wild type (WT) and heterozygous muscle-specific PKC-λ knockout (Het-MλKO) mice were generated as described (Farese et al., J. Clin. Invest. 117:2289-2301, 2007) and used at 6-12 months of age, when the O/MS/T2DM phenotype in MλKO mice is well-developed. Mice were housed in a temperature-controlled environment with alternating 12-hour light and dark cycles, and fed ad libitum with standard chow (Harlan Teklad 20/18 with 5% fat, (10% of calories from fat)). All experimental procedures in mice were approved by the Institutional Animal Care and Use Committees of the Roskamp Institute and the University of South Florida College of Medicine, and the James A. Haley Veterans Administration Medical Center Research and Development Committee, Tampa, Fla.
(ICAPP; prepared by Southern Research, Birmingham, Ala.) at 0.4 mg/kg body weight. On the morning of the eighth day of inhibitor treatment, mice were injected intraperitoneally (IP) with 0.9% saline or saline containing 1 U insulin/kg body weight 15 minutes before sacrifice, an optimal time for studies of insulin stimulation of aPKC and Akt in liver, muscle and adipose tissues (Standaert et al., J. Biol. Chem. 279:24929-24934, 2004; Sajan et al., J. Lipid Res. 50:1133-1145, 2009; Sajan et al., Diabetologia 52:1197-1207, 2009; Farese et al., J. Clin. Invest. 117:2289-2301, 2007). After killing, blood, liver, quadriceps muscle and abdominal adipose tissues were rapidly removed and homogenized in buffer with a POLYTRON® homogenizer.
as §1
Nuclear Preparations: As previously described (Sajan et al., J. Lipid Res. 50:1133-1145, 2009; Sajan et al., Diabetologia 52:1197-1207, 2009; Farese et al., J. Clin. Invest. 117:2289-2301, 2007), liver nuclei were prepared with NE-PER® Nuclear and Cytoplasmic Extraction Reagents (Pierce Biotechnology/Thermo Scientific, Waltham, Mass.; Cat. No. 78833) Levels of the active p65/RelA subunit of NFκB were measured in these nuclear preparations.

[1] = non-diabetic human hepatocytes, 6 hours, 100 nM insulin, 100 nM ICAP
[2] = liver of ICAP-treated Mλ-Het KO mice, relative to wild type = 1
[3] = Het-MλKO mice, ATM 60 mg/kg/day s.c., 7 days

Compound	expression of G6 Pase (human hepatocytes)	expression of PEPCK (human hepatocytes)	expression of ACC (human hepatocytes)	expression of FAS (human hepatocytes)	expression of IL-1β (human hepatocytes)	expression of SREBP-1c (human hepatocytes)	expression of TNF-α (human hepatocytes)	hepatic ACC mRNA (liver of Het-MλKO mice; Het-MλKO mice)	hepatic FAS mRNA (liver of Het-MλKO mice; Het-MλKO mice)	hepatic G6 Pase expression (liver of Het-MλKO mice; Het-MλKO mice)	hepatic PEPCK expression (liver of Het-MλKO mice; Het-MλKO mice)	hepatic SREBP-1c mRNA (liver of Het-MλKO mice; Het-MλKO mice)	other results
NC(=O)c1ncn([C@@H]2C[C@H](COP(=O)(O)O)[C@@H](O)[C@H]2O)c1N [ICAPP, 1H-imidazole-4-carboxamide, 5-amino-1-[2,3-dihydroxy-4-[(phosphonooxy)methyl]cyclopentyl]-[1R-(1α,2β,3β,4α)]]	insulin-like, or enhanced insulin, effects	insulin-like, or enhanced insulin, effects	diminished	diminished	diminished	diminished	diminished	diminished to wild type levels	diminished to wild type levels	trended downward to or toward control levels	trended downward to or toward control levels	diminished to wild type levels	–
NC(=O)c1ncn([C@@H]2C[C@H](CO)[C@@H](O)[C@H]2O)c1N [ICAP, 1H-imidazole-4-carboxamide 5-amino-1-[2,3-dihydroxy-4-[hydroxymethyl]cyclopentyl]-[1R-(1α,2β,3β,4α)]]	–	–	–	–	–	–	–	–	–	decreased	decreased	decreased	effects on insulin-provoked aPKC activity and mRNA levels in hepatocytes of diabetic humans (human hepatocytes; hepatocytes of diabetic humans): Comparable results; insulin-provoked increase in ACC mRNA (human hepatocytes; [1]): inhibited; insulin-provoked increase in FAS mRNA (human hepatocytes; [1]): inhibited; insulin-provoked increase in IL-1β mRNA (human hepatocytes; [1]): inhibited; insulin-provoked increase in SREBP-1c mRNA (human hepatocytes; [1]): inhibited; insulin-provoked increase in TNF-α mRNA (human hepatocytes; [1]): inhibited; relative mRNA level, G6Pase (liver of Het-MλKO mice; [2]): 1.42; relative mRNA level, PEPCK (liver of Het-MλKO mice; [2]): 0.52; relative mRNA level, SREBP-1c (liver of Het-MλKO mice; [2]): 1.14
O=C([O-])CC([S][Au])C(=O)[O-] (stereo not drawn) [ATM, aurothiomalate, reference compound]	insulin-like, or enhanced insulin, effects	insulin-like, or enhanced insulin, effects	diminished	diminished	diminished	diminished	diminished	decreased, virtually to normal	decreased, virtually to normal	diminished	diminished	decreased, virtually to normal	hepatic active nuclear NFκB/p65/RelA levels (liver of Het-MλKO mice; [3]): decreased, virtually to normal; hepatic expression of IL-1β (liver of Het-MλKO mice; [3]): normalized; hepatic expression of TNF-α (liver of Het-MλKO mice; [3]): normalized
